Structures can show the parent of a compound that is named as a salt.

The subject of this experiment is tetrabenazine-induced sedation. Nature of the experiment: Antitetrabenazine Test: prevention of tetrabenazine-induced sedation in mice. The format is in vivo, Mouse (CD1 males). To be noted: 0.5 h; Antitetrabenazine Activity in the Mouse; compound ip 30 min before tetrabenazine hydrochloride (ip); scored 30 min after tetrabenazine; read-out: ED50 (amount of the test compound required to reverse the tetrabenazine effects in 50 percent of the animals tested). On the procedure: Prevention of tetrabenazine-induced sedation was measured using a modification of the method of Vernier et al., First Hahnemann Symposium on Psychosomatic Medicine, ed. Nodim and Moyer, pub. Lea and Febiger, Philadelphia, 1962.
Mice, groups of 12 CD1 males each, were injected intraperitoneally (ip) with the hydrochloride salt of a compound of formula (I) in physiological saline solution or with physiological saline solution alone. Thirty minutes later each of the mice was injected (ip, 35 mg/kg) with a solution of tetrabenazine hydrochloride. Thirty minutes after the injection of tetrabenazine each mouse was examined for its level of exploratory behavior which was scored on a modification of the arbitrary scale defined by Vernier et. al. The result reported in Table I as the ED50 value is the amount of the test compound required to reverse the tetrabenazine effects in 50 percent of the animals tested.
In the case of `C[C@H]1CO[C@H](c2cccc(F)c2)[C@@H](C)N1` (relative stereo) [Example 1, (+-)-(2R*,3R*,5S*)-2-(3-fluorophenyl)-3,5-dimethylmorpholine hydrochloride], the ED50 amounted to 4 mg/kg.

As for `C[C@H]1CO[C@H](c2ccc(F)cc2)[C@@H](C)N1` (relative stereo) [Example 13, (+-)-(2R*,3R*,5S*)-2-(4-fluorophenyl)-3,5-dimethylmorpholine hydrochloride], the 50% effective dose (ED50) is 4 mg/kg.

As to `C[C@H]1CO[C@H](c2ccc(F)cc2)[C@@H](C)N1` [Example 6, (2R,3R,5S)-2-(4-fluorophenyl)-3,5-dimethylmorpholine hydrochloride], the ED50 came out at 10 mg/kg.

Take `C[C@@H]1CO[C@@H](c2ccc(F)cc2)[C@H](C)N1` [Example 12, (2S,3S,5R)-2-(4-fluorophenyl)-3,5-dimethylmorpholine hydrochloride]: the ED50 turned out to be 6 mg/kg.

As for `C[C@@H]1[C@@H](c2ccc(F)cc2)OC[C@H](C)N1C` (relative stereo) [Example 18, (+-)-(2R*,3R*,5S*)-2-(4-fluorophenyl)-3,4,5-trimethylmorpholine], the ED50 was 6 mg/kg.

With `C[C@@H]1CO[C@@H](c2cccc(F)c2)[C@H](C)N1C` [Example 16, (2S,3S,5R)-2-(3-fluorophenyl)-3,4,5-trimethylmorpholine hydrochloride], the ED50 stood at 8 mg/kg.

Turning to `C[C@@H]1[C@@H](c2cccc(F)c2)OC[C@H](C)N1C` (relative stereo) [Example 14, (+-)-(2R*,3R*,5S*)-2-(3-fluorophenyl)-3,4,5-trimethylmorpholine hydrochloride], the median effective dose (ED50) was 8 mg/kg.

As to `C[C@@H]1CO[C@@H](c2ccc(F)c(F)c2)[C@H](C)N1.Cl` [Example 2, (2S,3S,5R)-2-(3,4-difluorophenyl)-3,5-dimethylmorpholine hydrochloride], the median effective dose (ED50) turned out to be 8 mg/kg.

With `C[C@H]1CO[C@H](c2cccc(F)c2F)[C@@H](C)N1` (relative stereo) [Example 7, (+-)-(2R*,3R*,5S*)-2-(2,3-difluorophenyl)-3,5-dimethylmorpholine hydrochloride], the median effective dose (ED50) worked out at 4 mg/kg.

In general, ED50 refers to the dose at which the effect has come halfway, by size or by number of responders.

Values taken from patent publication US5648347A, “Arylmorpholine, preparation and use” (Glaxo Wellcome Inc., priority 1991, dated 1997).
